Measured values taken from patent US20260354380A1, “PYRAZOLO PESTICIDAL COMPOUNDS” (BASF SE, priority 2022, published 2026).
Where two headings read alike, the source gives them in different places.

Experiments:
Format in all cases: in vivo
Aedes aegypti = assay: whole plant or invertebrate; conditions: for mortality in comparison with untreated controls: 800 ppm, larvae, 2 days; for mortality at 800 ppm: Aedes aegypti, 48 h, read-out: mortality in comparison with untreated controls
In short: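 Visual larval mortality was assessed 2 days after treatment (28±1 °C, 80±5% RH). Formulations of compounds or mixtures (75% water/25% DMSO) were applied by micro-atomizer onto diet of 5-15 newly hatched larvae per water-filled well, two replicates per concentration.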

Dichromothrips corbetti = assay: Action on Orchid Thrips (Dichromothrips corbetti); conditions: for mortality at 300 ppm: Dichromothrips corbetti, read-out: mortality in comparison with untreated controls
Protocol: Example B2: Action on Orchid Thrips (Dichromothrips corbetti)
Dichromothrips corbetti adults used for bioassay were obtained from a colony maintained continuously under laboratory conditions. For testing purposes, the test compound is diluted in a 1:1 mixture of acetone: water (vol: vol), plus Kinetic® HV at a rate of 0.01% v/v.
Thrips potency of each compound was evaluated by using a floral-immersion technique. All petals of individual, intact orchid flowers were dipped into treatment solution and allowed to dryin Petri dishes. Treated petals were placed into individual re-sealable plastic along with about 20 adult thrips. All test arenas were held under continuous light and a temperature of about 28 °C for duration of the assay. After 3 days, the numbers of live thrips were counted on each petal. The percent mortality was recorded 72 hours after treatment.

Anthonomus grandis = assay: Action on Boll Weevil (Anthonomus grandis); conditions: for mortality at 800 ppm: Anthonomus grandis, 120 h, read-out: mortality in comparison with untreated controls
In short: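 Diet in 96-well plates, seeded with 5-10 A. grandis eggs, received a spray of formulated compound (25% DMSO in water) at a range of concentrations, duplicated. Mortality of eggs and larvae was judged by eye after 5 days at about 25±1 °C, 75±5% relative humidity.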

Heliothis virescens = assay: Action on Tobacco Budworm (Heliothis virescens); conditions: for mortality at 800 ppm: Heliothis virescens, 120 h, read-out: mortality in comparison with untreated controls
In short: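 Eggs (15-25 per well) on diet were held 5 days at about 28±1 °C, 80±5% RH, then egg and larval mortality was scored by eye. Beforehand the diet had been sprayed with compound dilutions formulated in water/DMSO 75:25 v/v, in two replicates.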

Plutella xylostella [1] = assay: Action on Diamond Back Moth (Plutella xylostella), cabbage leaf dip, 3rd instar larvae; conditions: for mortality at 300 ppm: read-out: mortality in comparison with untreated controls
In short: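 Cabbage leaves dipped in compound solution (1:1 water:acetone, 0.01% v/v surfactant), air-dried, then infested with ten 3rd-instar larvae in petri dishes on moist filter paper. Mortality scored at 72 h after treatment; feeding damage rated on a 0–100% scale.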

Spodoptera eridania = assay: Action on Southern Armyworm (Spodoptera eridania), 2nd Instar Larvae; conditions: for mortality at 300 ppm: read-out: mortality in comparison with untreated controls
In short: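 2nd-instar Spodoptera eridania larvae (about 10–11 per pot) confined on sprayed, dried Lima bean plants (1st true leaf stage) in sealed bags. Spray solutions: acetone/water 1:1 plus 0.01% surfactant. Held 4 days near 25 °C, 20–40% RH; assessed for mortality and feeding reduction against untreated controls.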

Plutella xylostella [2] = assay: Action on Diamond Back Moth (Plutella xylostella), microtiter plates, insect diet, eggs; conditions: 800 ppm; egg and larval mortality; 5 days
In short: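 Diet in 96-well plates with 15–25 P. xylostella eggs, sprayed with compound formulated in 75% water/25% DMSO at several concentrations, two replicates; mixtures combined in equal volumes. Incubated 5 days at 28±1 °C, 80±5% RH, then egg and larval mortality scored visually.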

[3] = 300 ppm, adults, 72 hours after treatment
[4] = 800 ppm, egg and larval mortality, 5 days
[5] = 300 ppm, 3rd instar larvae, 72 hours after treatment
[6] = 300 ppm, 2nd instar larvae, 4 days after treatment
[7] = Plutella xylostella, foliar, 72 h

Structure (SMILES)	mortality in comparison with untreated controls (Aedes aegypti)	mortality in comparison with untreated controls (Dichromothrips corbetti; [3])	mortality in comparison with untreated controls (Anthonomus grandis; [4])	mortality in comparison with untreated controls (Heliothis virescens; [4])	mortality in comparison with untreated controls (Plutella xylostella [1]; [5])	mortality in comparison with untreated controls (Spodoptera eridania; [6])	further results
Cc1ccc(C(C)C)c(N2C(=O)CS/C2=N\C(=O)Nc2ccc(-n3nc(C)c(NC(=O)c4ccc(OC(F)(F)F)cc4)c3C)cc2OC(F)F)c1 [Example C-20]	at least 50%	at least 75%	at least 75%	at least 75%	at least 75%	at least 75%	–
Cc1ccc(C(C)C)c(N/C(=N/C(=O)Nc2ccc(-n3nc(C)c(NC(=O)c4ccc(OC(F)(F)F)cc4)c3C)cc2Cl)SCOC(=O)C(C)C)c1 [Example C-130]	at least 50%	at least 75%	at least 75%	at least 75%	–	–	mortality in comparison with untreated controls (Plutella xylostella [2]): at least 75%
Cc1nn(-c2ccc(NC(=O)/N=C3\SCC(=O)N3c3cc(N(C)C)ccc3C(C)C)cc2)c(C)c1NC(=O)c1ccc(OC(F)(F)F)cc1 [Example C-17]	at least 50%	at least 75%	at least 75%	at least 75%	at least 75%	at least 75%	–
Cc1ccc(C(C)C)c(N2C(=O)CS/C2=N\C(=O)Nc2ccc(-n3nc(C)c(NC(=O)c4ccc(OC(F)(F)F)cc4)c3C)cc2Cl)c1 [Example C-4, N-[1-[3-chloro-4-[[(Z)-[3-(2-isopropyl-5-methyl-phenyl)-4-oxo-thiazolidin-2-ylidene]carbamoyl]amino]phenyl]-3,5-dimethyl-pyrazol-4-yl]-4-(trifluoromethoxy)benzamide]	–	–	–	–	–	–	mortality at 800 ppm (Aedes aegypti): ≥ 50%; mortality at 300 ppm (Dichromothrips corbetti; 72 h): ≥ 75%; mortality at 800 ppm (Anthonomus grandis): ≥ 75%; mortality at 800 ppm (Heliothis virescens): ≥ 75%; mortality at 300 ppm (Plutella xylostella [1]; [7]): ≥ 75%; mortality at 300 ppm (Spodoptera eridania; Spodoptera eridania, 96 h): ≥ 75%
Cc1ccc(C(C)C)c(NC(=S)NC(=O)Nc2ccc(-n3nc(C)c(NC(=O)c4ccc(OC(F)(F)F)cc4)c3C)cc2Cl)c1 [Example C-125]	at least 50%	at least 75%	at least 75%	at least 75%	–	at least 75%	mortality in comparison with untreated controls (Plutella xylostella [2]): at least 75%
Cc1ccc(C(C)C)c(N2C(=O)CS/C2=N\C(=O)Nc2ccc(-n3nc(C)c(NC(=O)c4ccc(OC(F)(F)F)cc4)c3C)cc2C)c1 [Example C-18]	at least 50%	at least 75%	at least 75%	at least 75%	at least 75%	at least 75%	–
Cc1ccc(C(C)C)c(N2C(=O)CS/C2=N\C(=O)Nc2ccc(-n3nc(C)c(NC(=O)c4ccc(OC(F)(F)F)cc4)c3C)cc2Br)c1 [Example C-19]	at least 50%	at least 75%	at least 75%	at least 75%	at least 75%	at least 75%	–
Cc1ccc(C(C)C)c(N2C(=O)CS/C2=N\C(=O)Nc2ccc(-n3cc(NC(=O)c4ccc(F)c(F)c4)c(C)n3)cc2)c1 [Example C-25]	at least 50%	at least 75%	at least 75%	at least 75%	at least 75%	at least 75%	–
Cc1nn(-c2ccc(NC(=O)/N=C3\SCC(=O)N3c3cc(C4CC4)ccc3C(C)C)c(F)c2)cc1NC(=O)c1ccc(OC(F)(F)F)cc1 [Example C-7]	at least 50%	at least 75%	at least 75%	at least 75%	at least 75%	at least 75%	–
Cc1ccc(C(F)(F)F)c(N2C(=O)CSC2=NC(=O)Nc2ccc(-n3cc(N(C)C(=O)c4ccc(OC(F)(F)F)cc4)c(C)n3)cc2)c1 [Example C-11]	at least 50%	at least 75%	at least 75%	at least 75%	at least 75%	at least 75%	–
Cc1nn(-c2ccc(NC(=O)N=C3SCC(=O)N3c3cc(C#N)ccc3C(C)C)cc2)cc1NC(=O)c1ccc(OC(F)(F)F)cc1 [Example C-10]	at least 50%	at least 75%	at least 75%	at least 75%	at least 75%	at least 75%	–
CCN(C(=O)c1ccc(OC(F)(F)F)cc1)c1c(C)nn(-c2ccc(NC(=O)/N=C3\SCC(=O)N3c3cc(C)ccc3C(C)C)c(Cl)c2)c1C [Example C-97]	at least 50%	at least 75%	at least 75%	at least 75%	at least 75%	at least 75%	–
Cc1ccc(C(C)C)c(N2C(=O)CS/C2=N\C(=O)Nc2ccc(-n3nc(C)c(N(C)C(=O)c4ccc(OC(F)(F)F)cc4)c3Cl)cc2)c1 [Example C-3, N-[5-chloro-1-[4-[[(Z)-[3-(2-isopropyl-5-methyl-phenyl)-4-oxo-thiazolidin-2-ylidene]carbamoyl]amino]phenyl]-3-methyl-pyrazol-4-yl]-N-methyl-4-(trifluoromethoxy)benzamide]	–	–	–	–	–	–	mortality at 800 ppm (Aedes aegypti): ≥ 50%; mortality at 300 ppm (Dichromothrips corbetti; 72 h): ≥ 75%; mortality at 800 ppm (Anthonomus grandis): ≥ 75%; mortality at 800 ppm (Heliothis virescens): ≥ 75%; mortality at 300 ppm (Plutella xylostella [1]; [7]): ≥ 75%; mortality at 300 ppm (Spodoptera eridania; Spodoptera eridania, 96 h): ≥ 75%
Cc1ccc(C(C)C)c(N2C(=O)CS/C2=N\C(=O)Nc2ccc(-n3cc(N(C)C(=O)c4ccc(OC(F)(F)F)cc4)c(C)n3)cc2)c1 [Example C-2, N-[1-[4-[[(Z)-[3-(2-isopropyl-5-methyl-phenyl)-4-oxo-thiazolidin-2-ylidene]carbamoyl]amino]phenyl]-3-methyl-pyrazol-4-yl]-N-methyl-4-(trifluoromethoxy)benzamide]	–	–	–	–	–	–	mortality at 800 ppm (Aedes aegypti): ≥ 50%; mortality at 300 ppm (Dichromothrips corbetti; [3]): ≥ 75%; mortality at 800 ppm (Anthonomus grandis; [4]): ≥ 75%; mortality at 800 ppm (Heliothis virescens; [4]): ≥ 75%; mortality at 10 ppm (Plutella xylostella [1]; Plutella xylostella, foliar, 72 h, Table R-1 comparative data, dose 10 ppm, test species PLUTMA, procedure analogous to B6): 100%; mortality at 300 ppm (Plutella xylostella [1]; Plutella xylostella, foliar, 300 ppm, 3rd instar larvae, 72 hours after treatment): ≥ 75%; mortality at 300 ppm (Spodoptera eridania; Spodoptera eridania, 96 h, 300 ppm, 2nd instar larvae, 4 days after treatment): ≥ 75%; mortality at 10 ppm (Spodoptera eridania; Spodoptera eridania, 96 h, Table R-1 comparative data, dose 10 ppm, test species PRODER, procedure analogous to B7): 82.5%
Cc1ccc(C(C)C)c(N2C(=O)CS/C2=N\C(=O)Nc2ccc(-n3cc(NC(=O)c4cc(F)c(F)c(F)c4)c(C)n3)cc2)c1 [Example C-23]	at least 50%	at least 75%	at least 75%	at least 75%	at least 75%	at least 75%	–
